Read-outs that look alike come from different tables or passages of the source.
Legend:
[1] = target: purified human Factor XIa (Homo sapiens (Human), UniProt P03951); assay: Factor XIa Assay; assay type: biochemical
Description: The effectiveness of a compound of the present invention as an inhibitor of Coagulation Factor XIa can be determined using a relevant purified serine protease, and an appropriate synthetic substrate. The rate of hydrolysis of the chromogenic or fluorogenic substrate by the relevant serine protease was measured both in the absence and presence of compounds of the present invention. Assays were conducted at room temperature or at 37° C. […] A decrease in the rate of fluorescence change in the presence of inhibitor is indicative of enzyme inhibition. Such methods are known to one skilled in the art. […]
Factor XIa determinations were made in 50 mM HEPES buffer at pH 7.4 containing 150 mM NaCl, 5 mM CaCl2, and 0.1% PEG 8000 (polyethylene glycol; JT Baker or Fisher Scientific). Determinations were made using purified human Factor XIa at a final concentration of 40 pM (Sekisui Diagnostics) and the synthetic substrate, Z-Gly-Pro-Arg-AFC, TFA salt (Sigma #C0980) at a concentration of 100 μM.
Times required to achieve equilibration between enzyme and inhibitor were determined in control experiments. Initial velocities of product formation in the absence (Vo) or presence of inhibitor (Vi) were measured. Assuming competitive inhibition, and that unity is negligible compared Km/[S], [I]/e, and [I]/e (where [S], [I], and e respectively represent the total concentrations, of substrate, inhibitor and enzyme), the equilibrium constant (Ki) for dissociation of the inhibitor from the enzyme can be obtained from the dependence of Vo/Vi on [I] shown in the following equation.

[2] = target: purified Human plasma kallikrein (Homo sapiens (Human), UniProt P03952); assay: Kallikrein Assay; assay type: biochemical
Chain of purified Human plasma kallikrein (P03952 391-638): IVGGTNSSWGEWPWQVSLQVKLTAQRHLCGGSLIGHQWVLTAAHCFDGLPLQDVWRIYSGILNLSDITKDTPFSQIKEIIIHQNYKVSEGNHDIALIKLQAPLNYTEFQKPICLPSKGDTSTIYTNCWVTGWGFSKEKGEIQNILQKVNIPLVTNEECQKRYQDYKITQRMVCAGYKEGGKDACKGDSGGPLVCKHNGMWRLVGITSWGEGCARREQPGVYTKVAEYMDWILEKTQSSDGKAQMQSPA
Chain of purified Human plasma kallikrein (P03952 20-390 partner): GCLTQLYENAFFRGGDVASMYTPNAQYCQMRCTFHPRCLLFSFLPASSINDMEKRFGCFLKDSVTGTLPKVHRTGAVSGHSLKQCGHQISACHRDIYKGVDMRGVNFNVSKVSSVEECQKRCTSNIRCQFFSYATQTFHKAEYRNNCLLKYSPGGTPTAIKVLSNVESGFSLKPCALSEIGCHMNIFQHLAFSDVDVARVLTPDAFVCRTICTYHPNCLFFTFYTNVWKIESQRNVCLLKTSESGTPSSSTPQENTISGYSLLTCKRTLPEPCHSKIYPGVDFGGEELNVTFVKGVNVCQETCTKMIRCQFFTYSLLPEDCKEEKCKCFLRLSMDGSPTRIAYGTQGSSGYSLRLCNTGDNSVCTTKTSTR
Description: The effectiveness of a compound of the present invention as an inhibitor of Kallikrein can be determined using a relevant purified serine protease, and an appropriate synthetic substrate. The rate of hydrolysis of the chromogenic or fluorogenic substrate by the relevant serine protease was measured both in the absence and presence of compounds of the present invention. Assays were conducted at room temperature or at 37° C. […] A decrease in the rate of fluorescence change in the presence of inhibitor is indicative of enzyme inhibition. Such methods are known to one skilled in the art. The results of this assay are expressed as the inhibitory constant, Ki.
Kallikrein determinations were made in 50 mM HEPES buffer at pH 7.4 containing 150 mM NaCl, 5 mM CaCl2, and 0.1% PEG 8000 (polyethylene glycol; Fisher Scientific). Determinations were made using purified Human plasma kallikrein at a final concentration of 0.5 nM (Enzyme Research Laboratories) and the synthetic substrate, Acetyl-K-P-R-AFC (Sigma # C6608) at a concentration of […].
Times required to achieve equilibration between enzyme and inhibitor were determined in control experiments. The reactions were performed under linear progress curve conditions and fluorescence increase measured at 405 Ex/510 Em nm. […] IC50 was determined by inflection point from a four parameter logistic curve fit. Ki was calculated using the Cheng Prusoff equation, Ki=IC50/(1+([S]/Km)).

[3] = substrate Z-Gly-Pro-Arg-AFC 100 μM, 40 pM enzyme, pH 7.4, read-out: FXIa IC50
[4] = Plasma kallikrein, substrate Acetyl-K-P-R-AFC, 0.5 nM enzyme, pH 7.4, read-out: PK IC50

Chain of purified human Factor XIa (P03951 388-625): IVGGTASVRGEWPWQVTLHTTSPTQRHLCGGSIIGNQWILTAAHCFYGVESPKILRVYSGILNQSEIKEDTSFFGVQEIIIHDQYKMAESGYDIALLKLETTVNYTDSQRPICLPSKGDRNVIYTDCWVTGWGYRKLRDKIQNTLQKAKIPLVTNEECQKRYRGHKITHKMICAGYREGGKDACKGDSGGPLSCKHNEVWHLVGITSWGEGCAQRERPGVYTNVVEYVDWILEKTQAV
Chain of purified human Factor XIa (P03951 19-387 partner): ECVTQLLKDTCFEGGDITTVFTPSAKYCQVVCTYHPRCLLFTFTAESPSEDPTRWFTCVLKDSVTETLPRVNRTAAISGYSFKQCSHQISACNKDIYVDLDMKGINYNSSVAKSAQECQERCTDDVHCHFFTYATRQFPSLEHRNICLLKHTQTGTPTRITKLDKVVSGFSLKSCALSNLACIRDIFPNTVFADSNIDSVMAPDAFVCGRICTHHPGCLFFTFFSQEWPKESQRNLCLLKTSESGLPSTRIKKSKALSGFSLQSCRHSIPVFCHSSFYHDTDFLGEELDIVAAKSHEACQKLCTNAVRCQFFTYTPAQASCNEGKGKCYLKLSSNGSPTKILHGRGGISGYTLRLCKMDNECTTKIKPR

| Compound | IC50 [1, 3] [nM] | IC50 [2, 4] [nM] | IC50 [1] [nM] | IC50 [2] [nM] |
| --- | --- | --- | --- | --- |
| O=C(O)c1ccc(-c2cccc(C(Cc3ccccc3)c3ccc(-c4cc(Cl)ccc4-n4cnnn4)c[n+]3[O-])c2)cc1 (single isomer, unassigned) [Example 11] | 14 | 276 | – | – |
| O=C(NC1CCCC1)N1CCC(c2cccc([C@H](Cc3ccccc3)c3ccc(-c4cc(Cl)ccc4-n4cnnn4)c[n+]3[O-])c2)CC1 [Example 47, 4-{3-[(1S)-1-{5-[5-chloro-2-(1H-tetrazol-1-yl)phenyl]-1-oxidopyridin-2-yl}-2-phenylethyl]phenyl}-N-cyclopentyl piperidine-1-carboxamide] | 20.1 | 879 | – | – |
| O=C(C1CCO1)N1CCC(c2cccc([C@H](Cc3ccccc3)c3ccc(-c4cc(Cl)ccc4-n4cnnn4)c[n+]3[O-])c2)CC1 (stereo partly drawn) [Example 35, 5-[5-chloro-2-(1H-tetrazol-1-yl)phenyl]-2-[(1S)-1-{3-[1-(oxetan-2-ylcarbonyl)piperidin-4-yl]phenyl}-2-phenylethyl] pyridine 1-oxide] | 12.2 | 403 | – | – |
| COCC(=O)N1CCC(c2cccc([C@H](Cc3ccccc3)c3ccc(-c4cc(Cl)ccc4-n4cnnn4)c[n+]3[O-])c2)CC1 [Example 36, 5-[5-chloro-2-(1H-tetrazol-1-yl)phenyl]-2-[(1S)-1-{3-[1-(methoxyacetyl)piperidin-4-yl]phenyl}-2-phenylethyl] pyridine 1-oxide] | 8.17 | 382 | – | – |
| CCNC(=O)N1CCC(c2cccc(C(Cc3ccccc3)c3ccc(-c4cc(Cl)ccc4-n4cnnn4)c[n+]3[O-])c2)CC1 (racemic) [Example 24, 4-[3-(1-{5-[5-chloro-2-(1H-tetrazol-1-yl)phenyl]-1-oxidopyridin-2-yl}-2-phenylethyl)phenyl]-N-ethylpiperidine-1-carboxamide] | 19 | 714 | – | – |
| COC(=O)Nc1ccc(-c2cccc([C@H](Cc3ccccc3)c3ccc(-c4cc(Cl)ccc4-n4cnnn4)c[n+]3[O-])c2)cc1 [Example 3, (S)-5-(5-Chloro-2-(1H-tetrazol-1-yl)phenyl)-2-(1-(4′-((methoxycarbonyl)amino)-[1,1′-biphenyl]-3-yl)-2-phenylethyl)pyridine 1-oxide] | 2.07 | 34.3 | – | – |
| CS(=O)(=O)c1ccc(-c2cccc(C(Cc3ccccc3)c3ccc(-c4cc(Cl)ccc4-n4cnnn4)c[n+]3[O-])c2)cc1 (stereo not shown) [Example 4] | 38.9 | 4660 | – | – |
| COC(=O)Nc1ccc(-c2cccc(C(Cc3ccccc3)c3ccc(-c4cc(Cl)ccc4-n4cnnn4)c[n+]3[O-])c2)cc1 (racemic) [Example 1, (±)-5-(5-Chloro-2-(1H-tetrazol-1-yl)phenyl)-2-(1-(4′-((methoxycarbonyl)amino)-[1,1′-biphenyl]-3-yl)-2-phenylethyl)pyridine 1-oxide] | 0.634 | 24.4 | – | – |
| O=C(O)c1cccc(-c2cc(F)cc(C(Cc3ccccc3)c3ccc(-c4cc(Cl)ccc4-n4cnnn4)c[n+]3[O-])c2)c1 (racemic) [Example 13] | 0.343 | 12 | – | – |
| O=C(CF)N1CCC(c2cccc([C@H](Cc3ccccc3)c3ccc(-c4cc(Cl)ccc4-n4cnnn4)c[n+]3[O-])c2)CC1 [Example 38, 5-[5-chloro-2-(1H-tetrazol-1-yl)phenyl]-2-[(1S)-1-{3-[1-(fluoroacetyl)piperidin-4-yl]phenyl}-2-phenylethyl] pyridine 1-oxide] | – | – | 10.9 | 322 |
| O=C1CC(C(=O)N2CCC(c3cccc([C@H](Cc4ccccc4)c4ccc(-c5cc(Cl)ccc5-n5cnnn5)c[n+]4[O-])c3)CC2)C1 [Example 32, 3-[(4-{3-[(1S)-1-{5-[5-chloro-2-(1H-tetrazol-1-yl)phenyl]-1-oxidopyridin-2-yl}-2-phenylethyl]phenyl}piperidin-1-yl)carbonyl] cyclobutanone] | 11.1 | 324 | – | – |
| CCNC(=O)N1CCC(c2cccc([C@H](Cc3ccccc3)c3ccc(-c4cc(Cl)ccc4-n4cnnn4)c[n+]3[O-])c2)CC1 [Example 28, 4-{3-[(1S)-1-{5-[5-chloro-2-(1H-tetrazol-1-yl)phenyl]-1-oxidopyridin-2-yl}-2-phenylethyl]phenyl}-N-ethylpiperidine-1-carboxamide] | 7.25 | 271 | – | – |
| CNC(=O)N1CCC(c2cccc(C(Cc3ccccc3)c3ccc(-c4cc(Cl)ccc4-n4cnnn4)c[n+]3[O-])c2)CC1 (racemic) [Example 21, 4-[3-(1-{5-[5-chloro-2-(1H-tetrazol-1-yl)phenyl]-1-oxidopyridin-2-yl}-2-phenylethyl)phenyl]-N-methyl piperidine-1-carboxamide] | 10.2 | 496 | – | – |
| CS(=O)(=O)N1CCC(c2cccc(C(Cc3ccccc3)c3ccc(-c4cc(Cl)ccc4-n4cnnn4)c[n+]3[O-])c2)CC1 (racemic) [Example 22, 5-[5-chloro-2-(1H-tetrazol-1-yl)phenyl]-2-(1-{3-[1-(methylsulfonyl)piperidin-4-yl]phenyl}-2-phenylethyl) pyridine 1-oxide] | 59.4 | 1040 | – | – |
| O=C(O)c1cccc(-c2cccc([C@@H](Cc3ccccc3)c3ccc(-c4cc(Cl)ccc4-n4cnnn4)c[n+]3[O-])c2)c1 (stereo in doubt) [Example 8, 2-(1-(3′-carboxy-[1,1′-biphenyl]-3-yl)-2-phenylethyl)-5-(5-chloro-2-(1H-tetrazol-1-yl)phenyl)pyridine 1-oxide] | 41 | 6920 | – | – |
| O=C(NC1CCOC1)N1CCC(c2cccc([C@H](Cc3ccccc3)c3ccc(-c4cc(Cl)ccc4-n4cnnn4)c[n+]3[O-])c2)CC1 (stereo partly drawn) [Example 49, 4-{3-[(1S)-1-{5-[5-chloro-2-(1H-tetrazol-1-yl)phenyl]-1-oxidopyridin-2-yl}-2-phenylethyl]phenyl}-N-(tetrahydrofuran-3-yl)piperidine-1-carboxamide] | 6.89 | 414 | – | – |
| O=C(NCC1CCOC1)N1CCC(c2cccc([C@H](Cc3ccccc3)c3ccc(-c4cc(Cl)ccc4-n4cnnn4)c[n+]3[O-])c2)CC1 (stereo partly drawn) [Example 52, 4-{3-[(1S)-1-{5-[5-chloro-2-(1H-tetrazol-1-yl)phenyl]-1-oxidopyridin-2-yl}-2-phenylethyl]phenyl}-N-(tetrahydrofuran-3-ylmethyl) piperidine-1-carboxamide] | 6.48 | 384 | – | – |
| O=C(C1CCCO1)N1CCC(c2cccc([C@H](Cc3ccccc3)c3ccc(-c4cc(Cl)ccc4-n4cnnn4)c[n+]3[O-])c2)CC1 (stereo partly drawn) [Example 31, 5-[5-chloro-2-(1H-tetrazol-1-yl)phenyl]-2-[(1S)-2-phenyl-1-{3-[1-(tetrahydrofuran-2-ylcarbonyl)piperidin-4-yl]phenyl}ethyl] pyridine 1-oxide] | 10.8 | 336 | – | – |
| O=C(NC1CCC1)N1CCC(c2cccc([C@H](Cc3ccccc3)c3ccc(-c4cc(Cl)ccc4-n4cnnn4)c[n+]3[O-])c2)CC1 [Example 51, 4-{3-[(1S)-1-{5-[5-chloro-2-(1H-tetrazol-1-yl)phenyl]-1-oxidopyridin-2-yl}-2-phenylethyl]phenyl}-N-cyclobutyl piperidine-1-carboxamide] | 13.2 | 614 | – | – |
| O=C(O)c1ccc(-c2cccc(C(Cc3ccccc3)c3ccc(-c4cc(Cl)ccc4-n4cnnn4)c[n+]3[O-])c2)cc1 (racemic) [Example 10] | 19.1 | 705 | – | – |

Reference: patent publication US9975874B2, “Factor XIa inhibitors” (Merck Sharp & Dohme Corp., priority 2014, dated 2018)
